Measurements from patent US20230150974A1 (Foghorn Therapeutics Inc., priority 2020, published 2023).

Experiments:
[1] = biological target: T1, HiBiT-BRM (Homo sapiens, UniProt P51531); assay: HiBiT-BRM cell-based degradation assay (Nano-Glo HiBiT Lytic Detection); details: HeLa cells expressing HiBiT-BRM, 24 h; for DC50: read-out: BRM HiBit Degradation IC50
T1 construct: expressed in transfected cells
Procedure, shortened: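 Luminescence from HiBiT–LgBiT complementation in lysates of a stable HiBiT-BRM HeLa line measured after 24 h compound exposure. Degradation expressed as percent relative to DMSO-treated cells and cells given 2 μM of a known BRM/BRG1 degrader.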

[2] = biological target: T2, HiBit-BRG1 (Homo sapiens, UniProt P51532); assay: HiBit-BRG1 cell-based degradation assay (Nano-Glo HiBiT Lytic Detection); details: HeLa cells expressing HiBit-BRG1 and LgBit, 24 h; for DC50: read-out: BRG1 HiBit Degradation IC50; for Dmax: read-out: BRG1 HiBit Degradation Maximum (%)
T2 construct: expressed in transfected cells
Procedure, shortened: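 Luminescence from Nano-Glo HiBiT lytic detection, read after 24 h compound exposure, scored degradation in a stable HeLa HiBiT-BRG1/LgBit line seeded at 5000 cells/well. DMSO wells defined 0% and 2 μM known BRM/BRG1 degrader wells defined full degradation.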

T2 sequence (P51532 whole entry): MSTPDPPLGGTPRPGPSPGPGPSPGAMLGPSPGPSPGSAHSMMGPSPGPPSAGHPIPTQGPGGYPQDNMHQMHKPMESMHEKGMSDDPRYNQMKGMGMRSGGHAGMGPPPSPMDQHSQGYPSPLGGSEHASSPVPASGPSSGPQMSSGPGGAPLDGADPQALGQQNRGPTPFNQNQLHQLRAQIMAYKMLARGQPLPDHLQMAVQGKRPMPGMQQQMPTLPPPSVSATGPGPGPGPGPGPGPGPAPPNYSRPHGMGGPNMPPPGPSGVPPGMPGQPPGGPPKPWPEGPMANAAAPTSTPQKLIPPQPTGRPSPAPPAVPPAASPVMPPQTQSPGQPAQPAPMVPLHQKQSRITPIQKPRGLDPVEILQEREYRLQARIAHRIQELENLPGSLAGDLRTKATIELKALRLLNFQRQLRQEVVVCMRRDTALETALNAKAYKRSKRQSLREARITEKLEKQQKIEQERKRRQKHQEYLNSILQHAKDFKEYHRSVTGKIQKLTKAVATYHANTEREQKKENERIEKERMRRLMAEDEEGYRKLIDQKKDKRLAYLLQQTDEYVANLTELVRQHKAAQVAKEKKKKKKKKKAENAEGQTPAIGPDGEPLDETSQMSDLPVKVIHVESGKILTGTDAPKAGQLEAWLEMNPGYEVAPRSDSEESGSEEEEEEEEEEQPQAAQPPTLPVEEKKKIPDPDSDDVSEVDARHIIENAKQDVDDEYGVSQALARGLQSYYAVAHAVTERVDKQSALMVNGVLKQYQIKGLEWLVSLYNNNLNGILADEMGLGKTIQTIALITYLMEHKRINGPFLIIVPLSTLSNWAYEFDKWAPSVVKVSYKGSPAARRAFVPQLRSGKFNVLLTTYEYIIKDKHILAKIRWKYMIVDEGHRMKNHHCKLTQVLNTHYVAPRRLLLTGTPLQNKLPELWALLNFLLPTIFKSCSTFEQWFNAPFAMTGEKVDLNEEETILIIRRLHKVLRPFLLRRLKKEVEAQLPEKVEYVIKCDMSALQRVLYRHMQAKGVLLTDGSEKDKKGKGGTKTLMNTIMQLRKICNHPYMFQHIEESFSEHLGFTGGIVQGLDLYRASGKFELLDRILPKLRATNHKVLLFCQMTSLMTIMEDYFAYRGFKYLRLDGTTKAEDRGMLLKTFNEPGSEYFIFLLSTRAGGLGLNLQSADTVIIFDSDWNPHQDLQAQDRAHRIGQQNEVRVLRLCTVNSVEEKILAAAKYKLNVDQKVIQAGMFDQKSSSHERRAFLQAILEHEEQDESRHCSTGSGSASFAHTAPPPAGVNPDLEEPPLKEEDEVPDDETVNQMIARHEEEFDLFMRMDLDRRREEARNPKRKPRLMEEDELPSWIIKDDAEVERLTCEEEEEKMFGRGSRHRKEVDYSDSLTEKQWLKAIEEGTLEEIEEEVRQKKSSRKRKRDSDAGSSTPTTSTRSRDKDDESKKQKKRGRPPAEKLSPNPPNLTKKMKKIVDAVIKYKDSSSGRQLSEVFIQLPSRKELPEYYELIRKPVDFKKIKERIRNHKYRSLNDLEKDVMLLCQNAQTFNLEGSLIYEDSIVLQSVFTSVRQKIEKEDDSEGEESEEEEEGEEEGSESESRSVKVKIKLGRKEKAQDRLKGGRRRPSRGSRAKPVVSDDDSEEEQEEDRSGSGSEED
T1 sequence (P51531 whole entry): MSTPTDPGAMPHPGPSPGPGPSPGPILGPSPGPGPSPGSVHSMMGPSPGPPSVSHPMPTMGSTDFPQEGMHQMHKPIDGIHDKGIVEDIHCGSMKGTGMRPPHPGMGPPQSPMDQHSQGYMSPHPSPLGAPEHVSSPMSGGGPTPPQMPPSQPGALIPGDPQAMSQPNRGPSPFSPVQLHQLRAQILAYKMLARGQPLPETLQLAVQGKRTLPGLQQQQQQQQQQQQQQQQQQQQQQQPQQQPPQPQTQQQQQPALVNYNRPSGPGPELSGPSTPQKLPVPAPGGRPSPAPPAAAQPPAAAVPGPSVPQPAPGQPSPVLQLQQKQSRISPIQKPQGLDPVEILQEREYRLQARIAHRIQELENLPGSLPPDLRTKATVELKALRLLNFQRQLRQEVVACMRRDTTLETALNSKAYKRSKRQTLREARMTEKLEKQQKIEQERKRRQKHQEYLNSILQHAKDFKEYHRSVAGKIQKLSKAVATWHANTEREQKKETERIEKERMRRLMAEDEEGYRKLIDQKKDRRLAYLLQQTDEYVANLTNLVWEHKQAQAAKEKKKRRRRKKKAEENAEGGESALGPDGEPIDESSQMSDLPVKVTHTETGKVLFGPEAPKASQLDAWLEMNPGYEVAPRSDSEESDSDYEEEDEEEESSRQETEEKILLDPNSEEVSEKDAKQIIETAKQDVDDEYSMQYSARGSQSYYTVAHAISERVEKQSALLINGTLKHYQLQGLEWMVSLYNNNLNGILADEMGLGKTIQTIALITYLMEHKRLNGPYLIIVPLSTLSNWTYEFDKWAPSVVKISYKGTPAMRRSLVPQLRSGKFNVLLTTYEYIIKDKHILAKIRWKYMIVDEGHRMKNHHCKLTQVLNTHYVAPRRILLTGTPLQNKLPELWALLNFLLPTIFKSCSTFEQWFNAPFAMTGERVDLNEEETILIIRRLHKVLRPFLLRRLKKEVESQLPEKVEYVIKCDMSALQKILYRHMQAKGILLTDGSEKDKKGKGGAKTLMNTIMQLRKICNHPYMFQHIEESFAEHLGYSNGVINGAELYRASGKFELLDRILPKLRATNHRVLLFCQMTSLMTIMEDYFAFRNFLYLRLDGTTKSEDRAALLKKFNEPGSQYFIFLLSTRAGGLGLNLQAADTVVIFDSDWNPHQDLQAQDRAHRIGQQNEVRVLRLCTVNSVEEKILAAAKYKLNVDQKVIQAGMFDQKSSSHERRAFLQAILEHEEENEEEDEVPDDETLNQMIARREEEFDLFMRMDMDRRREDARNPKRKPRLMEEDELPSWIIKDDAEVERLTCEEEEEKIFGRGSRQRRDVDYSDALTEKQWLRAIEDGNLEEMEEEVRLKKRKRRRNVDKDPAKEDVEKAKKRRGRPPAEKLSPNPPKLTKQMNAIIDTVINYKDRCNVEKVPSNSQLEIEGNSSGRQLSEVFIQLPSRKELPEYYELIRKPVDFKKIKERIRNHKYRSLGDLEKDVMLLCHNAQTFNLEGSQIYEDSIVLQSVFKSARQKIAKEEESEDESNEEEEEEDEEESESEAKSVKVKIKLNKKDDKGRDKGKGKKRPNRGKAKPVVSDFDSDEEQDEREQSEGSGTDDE

Compound | DC50 [1] | DC50 [2] | Dmax [2] | BRM HiBit Degradation Maximum (%) [1]
Cc1ncsc1-c1ccc(CNC(=O)[C@@H]2C[C@@H](O)CN2C(=O)[C@@H](NC(=O)COCCNC(=O)c2ccc(CCOc3cc(-c4ccccc4O)nnc3N)cc2)C(C)(C)C)cc1 [Compound 163, (2S,4R)-1-((S)-2-(2-(2-(4-(2-((3-amino-6-(2-hydroxyphenyl)pyridazin-4-yl)oxy)ethyl)benzamido)ethoxy)acetamido)-3,3-dimethylbutanoyl)-4-hydroxy-N-(4-(4-methylthiazol-5-yl)benzyl)pyrrolidine-2-carboxamide] | > 1000 nM | > 1000 nM | < 50% | B (“B” indicates maximum degradation ≥50%)
Cc1ncsc1-c1ccc(CNC(=O)[C@@H]2C[C@@H](O)CN2C(=O)[C@@H](NC(=O)COCCOCC(=O)NCc2ccc(CCOc3cc(-c4ccccc4O)nnc3N)cc2)C(C)(C)C)cc1 [Compound 164, (2S,4R)-1-((S)-1-(4-(2-((3-amino-6-(2-hydroxyphenyl)pyridazin-4-yl)oxy)ethyl)phenyl)-12-(tert-butyl)-3,10-dioxo-5,8-dioxa-2,11-diazatridecan-13-oyl)-4-hydroxy-N-(4-(4-methylthiazol-5-yl)benzyl)pyrrolidine-2-carboxamide] | > 1000 nM | > 1000 nM | < 50% | B (“B” indicates maximum degradation ≥50%)
Nc1nnc(-c2ccccc2O)cc1NCCc1ccc(CNCCN2CCN(c3cccc4c3C(=O)N(C3CCC(=O)NC3=O)C4=O)CC2)cc1 (centres unmarked) [Compound 166, 4-(4-(2-((4-(2-((3-amino-6-(2-hydroxyphenyl)pyridazin-4-yl)amino)ethyl)benzyl)amino)ethyl)piperazin-1-yl)-2-(2,6-dioxopiperidin-3-yl)isoindoline-1,3-dione] | > 1000 nM | > 1000 nM | < 50% | C (“C” indicates maximum degradation <50%)
Cc1ncsc1-c1ccc(CNC(=O)[C@@H]2C[C@@H](O)CN2C(=O)[C@@H](NC(=O)COCCOCCOCCOCCOCCNC(=O)c2ccc(CCOc3cc(-c4ccccc4O)nnc3N)cc2)C(C)(C)C)cc1 [Compound 167, (2S,4R)-1-((S)-1-(4-(2-((3-amino-6-(2-hydroxyphenyl)pyridazin-4-yl)oxy)ethyl)phenyl)-21-(tert-butyl)-1,19-dioxo-5,8,11,14,17-pentaoxa-2,20-diazadocosan-22-oyl)-4-hydroxy-N-(4-(4-methylthiazol-5-yl)benzyl)pyrrolidine-2-carboxamide] | > 1000 nM | > 1000 nM | < 50% | B (“B” indicates maximum degradation ≥50%)
Cc1ncsc1-c1ccc(CNC(=O)[C@@H]2C[C@@H](O)CN2C(=O)[C@@H](NC(=O)COCCOCCOCCOCCOCC(=O)NCc2ccc(CCOc3cc(-c4ccccc4O)nnc3N)cc2)C(C)(C)C)cc1 [Compound 168, N1-(4-(2-((3-amino-6-(2-hydroxyphenyl)pyridazin-4-yl)oxy)ethyl)benzyl)-N17-((S)-1-((2S,4R)-4-hydroxy-2-((4-(4-methylthiazol-5-yl)benzyl)carbamoyl)pyrrolidin-1-yl)-3,3-dimethyl-1-oxobutan-2-yl)-3,6,9,12,15-pentaoxaheptadecanedia] | > 1000 nM | > 1000 nM | < 50% | C (“C” indicates maximum degradation <50%)
Cc1ncsc1-c1ccc([C@H](C)NC(=O)[C@@H]2C[C@@H](O)CN2C(=O)[C@@H](NC(=O)CCCCCCCCCNC(=O)c2ccc(CCOc3cc(-c4ccccc4O)nnc3N)cc2)C(C)(C)C)cc1 [Compound 171, (2S,4R)-1-((S)-2-(10-(4-(2-((3-amino-6-(2-hydroxyphenyl)pyridazin-4-yl)oxy)ethyl)benzamido)decanamido)-3,3-dimethylbutanoyl)-4-hydroxy-N-((S)-1-(4-(4-methylthiazol-5-yl)phenyl)ethyl)pyrrolidine-2-carboxamide] | > 100 nM | > 1000 nM | > 50% | A (“A” indicates maximum degradation ≥75%)
Cc1ncsc1-c1ccc([C@H](C)NC(=O)[C@@H]2C[C@@H](O)CN2C(=O)[C@@H](c2cc(OCCN3CCN(CC(=O)NCc4ccc(CCOc5cc(-c6ccccc6O)nnc5N)cc4)CC3)no2)C(C)C)cc1 [Compound 174, (2S,4R)-1-((R)-2-(3-(2-(4-(2-((4-(2-((3-amino-6-(2-hydroxyphenyl)pyridazin-4-yl)oxy)ethyl)benzyl)amino)-2-oxoethyl)piperazin-1-yl)ethoxy)isoxazol-5-yl)-3-methylbutanoyl)-4-hydroxy-N-((S)-1-(4-(4-methylthiazol-5-yl)phenyl)ethyl)pyrrolidine-2-carboxamide] | > 10 nM | > 100 nM | > 75% | A (“A” indicates maximum degradation ≥75%)
Cc1ncsc1-c1ccc([C@H](C)NC(=O)[C@@H]2C[C@@H](O)CN2C(=O)[C@@H](c2cc(OCCN3CCN(CCC(=O)NCc4ccc(CCOc5cc(-c6ccccc6O)nnc5N)cc4)CC3)no2)C(C)C)cc1 [Compound 175, (2S,4R)-1-[(2R)-2-[3-(2-[4-[2-([[4-(2-[[3-amino-6-(2-hydroxyphenyl)pyridazin-4-yl]oxy]ethyl)phenyl]methyl]carbamoyl)ethyl]piperazin-1-yl]ethoxy)-1,2-oxazol-5-yl]-3-methylbutanoyl]-4-hydroxy-N-[(1S)-1-[4-(4-methyl-1,3-thiazol-5-yl)phenyl]ethyl]pyrrolidine-2-carboxamide] | > 10 nM | > 100 nM | > 50% | A (“A” indicates maximum degradation ≥75%)
Cc1ncsc1-c1ccc([C@H](C)NC(=O)[C@@H]2C[C@@H](O)CN2C(=O)[C@@H](c2cc(OCCN3CCC(C(=O)NCc4ccc(CCOc5cc(-c6ccccc6O)nnc5N)cc4)CC3)no2)C(C)C)cc1 [Compound 176, N-(4-(2-((3-amino-6-(2-hydroxyphenyl)pyridazin-4-yl)oxy)ethyl)benzyl)-1-(2-((5-((R)-1-((2S,4R)-4-hydroxy-2-(((S)-1-(4-(4-methylthiazol-5-yl)phenyl)ethyl)carbamoyl)pyrrolidin-1-yl)-3-methyl-1-oxobutan-2-yl)isoxazol-3-yl)oxy)ethyl)piperidine-4-carboxamide] | > 10 nM | > 100 nM | > 75% | A (“A” indicates maximum degradation ≥75%)

Continued, in another order:

DC50 [1] | DC50 [2] | Dmax [2] | Compound | BRM HiBit Degradation Maximum (%) [1]
> 1000 nM | > 1000 nM | < 50% | Cc1ncsc1-c1ccc(CNC(=O)[C@@H]2C[C@@H](O)CN2C(=O)[C@@H](NC(=O)COCC(=O)NCc2ccc(CCOc3cc(-c4ccccc4O)nnc3N)cc2)C(C)(C)C)cc1 [Compound 165, (2S,4R)-1-((S)-2-(2-(2-((4-(2-((3-amino-6-(2-hydroxyphenyl)pyridazin-4-yl)oxy)ethyl)benzyl)amino)-2-oxoethoxy)acetamido)-3,3-dimethylbutanoyl)-4-hydroxy-N-(4-(4-methylthiazol-5-yl)benzyl)pyrrolidine-2-carboxamide] | A (“A” indicates maximum degradation ≥75%)
> 100 nM | > 1000 nM | < 50% | Cc1ncsc1-c1ccc(CNC(=O)[C@@H]2C[C@@H](O)CN2C(=O)[C@@H](NC(=O)CCCCCCCCCCCCCC(=O)NCc2ccc(CCOc3cc(-c4ccccc4O)nnc3N)cc2)C(C)C)cc1 [Compound 169, N1-(4-(2-((3-amino-6-(2-hydroxyphenyl)pyridazin-4-yl)oxy)ethyl)benzyl)-N15-((S)-1-((2S,4R)-4-hydroxy-2-((4-(4-methylthiazol-5-yl)benzyl)carbamoyl)pyrrolidin-1-yl)-3-methyl-1-oxobutan-2-yl)pentadecanediamide] | B (“B” indicates maximum degradation ≥50%)
> 1000 nM | > 1000 nM | < 50% | Cc1ncsc1-c1ccc(CNC(=O)[C@@H]2C[C@@H](O)CN2C(=O)[C@@H](NC(=O)CCCCCCCCCNC(=O)c2ccc(CCOc3cc(-c4ccccc4O)nnc3N)cc2)C(C)C)cc1 [Compound 170, (2S,4R)-1-((10-(4-(2-((3-amino-6-(2-hydroxyphenyl)pyridazin-4-yl)oxy)ethyl)benzamido)decanoyl)-L-valyl)-4-hydroxy-N-(4-(4-methylthiazol-5-yl)benzyl)pyrrolidine-2-carboxamide] | C (“C” indicates maximum degradation <50%)
> 10 nM | > 100 nM | > 50% | Cc1ncsc1-c1ccc([C@H](C)NC(=O)[C@@H]2C[C@@H](O)CN2C(=O)[C@@H](NC(=O)CCCCCCCCCCCCCCCC(=O)NCc2ccc(CCOc3cc(-c4ccccc4O)nnc3N)cc2)C(C)(C)C)cc1 [Compound 172, N1-(4-(2-((3-amino-6-(2-hydroxyphenyl)pyridazin-4-yl)oxy)ethyl)benzyl)-N17-((S)-1-((2S,4R)-4-hydroxy-2-(((S)-1-(4-(4-methylthiazoi-5-yl)phenyl)ethyl)carbamoyl)pyrrolidin-1-yl)-3,3-dimethyl-1-oxobutan-2-yl)heptadecanediamide] | A (“A” indicates maximum degradation ≥75%)
> 100 nM | > 1000 nM | < 50% | Cc1ncsc1-c1ccc(CNC(=O)[C@@H]2C[C@@H](O)CN2C(=O)[C@@H](NC(=O)CCCCCCCCCCCCCCCC(=O)NCc2ccc(CCOc3cc(-c4ccccc4O)nnc3N)cc2)C(C)C)cc1 [Compound 173, N1-(4-(2-((3-amino-6-(2-hydroxyphenyl)pyridazin-4-yl)oxy)ethyl)benzyl)-N17-((S)-1-((2S,4R)-4-hydroxy-2-((4-(4-methylthiazol-5-yl)benzyl)carbamoyl)pyrrolidin-1-yl)-3-methyl-1-oxobutan-2-yl)heptadecanediamide] | B (“B” indicates maximum degradation ≥50%)
